Columns and labels:
[1] = test system: recurrent or metastatic (R/M) adenoid cystic carcinoma (ACC); assay: Phase 2 study of rivoceranib in R/M ACC: response, PFS, TTP per CHOI response criteria by BIRC; format: in vivo, human; details: for Complete Response / DoR 25th percentile / DoR 75th percentile / DoR Median / Partial Response / Progressive Disease / Stable Disease / DCR (disease control rate): BIRC
Source text: (§1) Objectives: Primary objectives were to evaluate safety & tolerability, efficacy by objective response rate (ORR), best overall response (BOR), time to response, duration of response, disease control rate, and duration of disease control. Secondary objectives were to evaluate efficacy as measured by overall survival, progression-free survival and event-free survival. The primary efficacy endpoint was the ORR, defined as the proportion of patients who achieved confirmed complete response (CR) or partial response (PR) per Response Evaluation Criteria in Solid Tumors (RECIST) Version 1.1 (V1.1). The secondary efficacy endpoints were duration of response (DoR) assessed by the investigator and a blinded independent review committee (BIRC), progression-free survival (PFS) assessed at 6 months, 12 months, and 2 years by investigator and BIRC, Time to Progression (TTP) assessed by investigator and BIRC, and overall survival (OS) assessed at 1 and 2 years. Exploratory efficacy endpoints include ORR per CHOI response criteria (based on the journal article, Choi et al., Correlation of computed tomography and positron emission tomography in patients with metastatic gastrointestinal stromal tumor treated at a single institution with imatinib mesylate: proposal of new computed tomography response criteria. J Clin Oncol. 2007; 25(13): 1753-1759) by a blinded independent review […] (BIRC) and disease control rate (DCR) per RECIST V1.1 by Investigator and BIRC. Except for CHOI response criteria, all response endpoints were assessed per RECIST V1.1 by Investigator and BIRC.
Endpoint of Response per CHOI response Criteria: CHOI response criteria assesses response based on change in tumor density as well as change in tumor size and have been most often used to assess response to treatment with tyrosine kinase inhibitors such as imatinib in gastrointestinal stromal tumors (GIST) where RECIST criteria underestimate response. Evaluation of response per CHOI response criteria by BIRC was added to the protocol for exploratory analysis because Investigators observed decreases in tumor density on treatment with rivoceranib without changes in tumor lesion diameters. Changes in tumor density had not been reported with other treatments investigated for R/M ACC.
Objective response rate (ORR), duration of response (DOR) and disease control rate (DCR) in the efficacy evaluable population per CHOI response criteria (using the same data set as used for analyses per RECIST V1.1): Assessment of response per CHOI response criteria required a subject have contrast-enhanced CT scan as the imaging modality for assessment of tumor density at baseline and post-baseline time points. Therefore, fewer subjects were efficacy evaluable per CHOI response criteria (N=60) than per RECIST V1.1 criteria (N=73). […] This is >4-fold higher than the ORR of 9.6% per RECIST V1.1 reported by BIRC. […] Median DOR per CHOI response criteria was 14.8 months, which was two-fold higher than that reported per RECIST V1.1-7.2 months reported by BIRC.

[2] = test system: recurrent or metastatic (R/M) adenoid cystic carcinoma (ACC); assay: Phase 2 study of rivoceranib in R/M ACC: overall survival, intention-to-treat population; format: in vivo, human; details: 700 mg QD start
Source text: as §1
The OS was calculated by Overall Survival (months)=12*(Date of death−First dose of rivoceranib+1)/365.25. Median OS were not evaluable. In general, OS rates at 6, 9 and 12 months were similar regardless of prior VEGFR inhibitor treatment or prior systemic anticancer treatment.

[3] = CHOI criteria, Total N = 60, 700 mg QD start
[4] = CHOI criteria, VEGFRi-naïve N = 48, 700 mg QD start
[5] = CHOI criteria, VEGFRi-treated N = 12, 700 mg QD start
[6] = CHOI criteria, efficacy evaluable population, 700 mg QD start

Compound: N#CC1(c2ccc(NC(=O)c3cccnc3NCc3ccncc3)cc2)CCCC1 [Rivoceranib, N-[4-(1-cyanocyclopentyl)phenyl]-2-{[(pyridin-4-yl)methyl]amino}pyridine-3-carboxamide]
- ORR per CHOI criteria relative to ORR per RECIST V1.1 by BIRC ([1]; 51.7% vs 9.6%): > 4 fold
- Complete Response [1, 3]: 0%
- DoR 25th percentile [1, 3]: 7.2 months
- DoR 75th percentile [1, 3]: 20.2 months
- DoR Median [1, 3]: 14.8 months
- Partial Response [1, 3]: (51.7) %
- Progressive Disease [1, 3]: (6.7) %
- Stable Disease [1, 3]: (41.7) %
- Complete Response [1, 4]: 0%
- DCR (disease control rate) [1, 4]: (60.4) %
- DoR 25th percentile [1, 4]: 7.2 months
- DoR 75th percentile [1, 4]: 20.2 months
- DoR Median [1, 4]: 14.8 months
- Partial Response [1, 4]: (52.1) %
- Progressive Disease [1, 4]: (6.3) %
- Stable Disease [1, 4]: (41.7) %
- Complete Response [1, 5]: 0%
- DCR (disease control rate) [1, 5]: (66.7) %
- DoR 25th percentile [1, 5]: 12.2 months
- DoR Median [1, 5]: 12.2 months
- Partial Response [1, 5]: (50.0) %
- Progressive Disease [1, 5]: (8.3) %
- Stable Disease [1, 5]: (41.7) %
- Median TTP [1, 6]: 14.4 months
- estimated PFS rate at 6 months [1, 6]: 80.4%
- estimated PFS rate at 9 months [1, 6]: 62.6%
- estimated PFS rate at 12 months [1, 6]: 53.8%
- estimated TTP rate at 6 months [1, 6]: 82%
- estimated TTP rate at 9 months [1, 6]: 67.7%
- estimated TTP rate at 12 months [1, 6]: 58.3%
- median PFS [1, 6]: 13.8 months
- OS rate at 6 months ([2]; ITT population): 94.7%
- OS rate at 9 months ([2]; ITT population): 83.5%
- OS landmark 12-months, % (95% CI) ([2]; ITT, Total N = 80): 74.5 (62.5-83.1) %
- OS landmark 18-months, % (95% CI) ([2]; ITT, Total N = 80): 61.7 (48.3-72.5) %
- OS landmark 12-months, % (95% CI) ([2]; ITT, VEGFRi-naïve N = 66): 77.4 (64.2-86.2) %
- OS landmark 18-months, % (95% CI) ([2]; ITT, VEGFRi-naïve N = 66): 66.0 (51.1-77.3) %
- Median OS ([2]; ITT, VEGFRi-treated N = 14): 17.5 months
- OS landmark 12-months, % ([2]; ITT, VEGFRi-treated N = 14): 62.9%
- OS landmark 18-months, % ([2]; ITT, VEGFRi-treated N = 14): 45.8%

Reference: patent publication US20260041677A1, “COMPOSITIONS AND METHODS FOR TREATING ADENOID CYSTIC CARCINOMA” (ELEVAR THERAPEUTICS, INC., priority 2022, published 2026)
